Reference: patent US20110195924A1, “Methods of Inhibiting the Interaction Between S100P and the Receptor for Advanced Glycation End-Products” (priority 2008, published 2011)
Entries after “also recorded” stand apart in the source; their conditions may differ.

Legend:
[1] = tested on: NFkB activity; experiment: S100P induced NFkB activity in cancer cells (analogs); type: cell-based
Method: Various cromolyn-based analogs were developed. The effects of the analogs on binding of S100P with RAGE were evaluated for the analogs using a sandwich ELISA. The effectiveness of the analogs to block cancer cell proliferatin and increase apoptosis in vitro were analyzed with and without cisplatin, 5-flurouracil and gemcitabine by MTS and FACS analysis. We also examined the ability of the analogs to inhibit S100P activation of NFkB signaling in cancer cells in vitro and in vivo. Finally, the effects of the novel analogs on tumor growth in vivo was evaluated.

[2] = target: T1, S100P binding with RAGE (Homo sapiens, UniProt P25815); experiment: ELISA of S100P binding to RAGE (sRAGE coated plate); conditions: analogs at 10-fold lower concentration than cromolyn
T1 construct: full-length human S100P cDNA (NM_005980) was cloned into the pTrcHis2 vector; His; made in house; host or cells: bacteria (S100P)
T1 sequence (P25815 1-95): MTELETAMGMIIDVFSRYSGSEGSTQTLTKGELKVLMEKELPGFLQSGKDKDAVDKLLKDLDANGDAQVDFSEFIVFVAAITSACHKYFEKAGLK
Method: After removing un-bound S100P by washing with detergent, the bound S100P and RAGE complex was quantified by adding HRP labeled antibody against S100P. *, P=0.04 C5 1 μM versus cromolyn 5 μM. Two-tailed two-sample (unpaired) Student's t-tests were used to determine P values.
The plate was washed and the amount of bound S100P was quantitated using anti-S100P antibody.
The binding of S100P to RAGE was determined using an ELISA assay. sRAGE was attached to the dish and recombinant S100P (50 ng) was added with or without the indicated concentrations of cromolyn analogs. The plate was washed and the amount of bound S100P was quantitated using anti-S100P antibody.

[3] = tested on: MPanc96 tumors; experiment: MPanc96 pancreatic tumor growth and survival in mice (analogs); type: in vivo
Method: (§1) Various cromolyn-based analogs were developed. The effects of the analogs on binding of S100P with RAGE were evaluated for the analogs using a sandwich ELISA. The effectiveness of the analogs to block cancer cell proliferatin and increase apoptosis in vitro were analyzed with and without cisplatin, 5-flurouracil and gemcitabine by MTS and FACS analysis. We also examined the ability of the analogs to inhibit S100P activation of NFkB signaling in cancer cells in vitro and in vivo. Finally, the effects of the novel analogs on tumor growth in vivo was evaluated. One analog, C5OH is shown below:
Animals were implanted with MPanc96 cells, a gemcitabine resistant model of pancreatic cancer, and then treated with gemcitabine, C5OH, or the combination. […] Noteworthy, the addition of the hydroxyl group to the carbon chain in C5 allows easy modifications of this molecule. The hydroxyl can be substituted with fluoride that can be labeled for in vivo PET imaging. This hydroxyl can also be used to develop a pro-drug form of C5 by attaching other components with an ester bond.

[4] = tested on: pancreatic cancer cells; experiment: Apoptosis of pancreatic cancer cells with cromolyn analogs and cytotoxic drugs; type: cell-based
Method: as §1
In this in vitro study, pancreatic cancer cells were treated with gemcitabine alone or in the presence of cromolyn analogs. The cromolyn analogs themselves have very little effect on the rates of cellular apoptosis, supporting their absence of general toxicity. However, all cromolyn analogs increased the killing of pancreatic cancer cells by gemcitabine.

[5] = tested on: Panc-1 cells; experiment: Panc-1 cell proliferation (MTS); type: cell-based; conditions: Panc-1
Method: Panc-1 pancreatic adenocarcinoma cells (1.0×10^3 cells/well) were cultured in the presence or absence of S100P (100 nM) and with or without cromolyn (100 μM), and cell proliferation was analyzed at 24, 48, and 72 hours. Means and 95% confidence intervals of three independent experiments performed in triplicate are shown. *, P=0.001, S100P alone versus S100P+cromolyn.
Panc-1 cells were plated at 1.0×10^3 cells/well and treated with platelet-derived growth factor (10 ng/mL) with or without cromolyn (100 μM), and cell proliferation was analyzed after 48 hours. Means and 95% confidence intervals of three independent experiments performed in triplicate are shown. *, P=0.004 PDGF and P=0.022 cromolyn+PDGF versus control.
Growth of Panc-1 and BxPC3 pancreatic adenocarcinoma cells was analyzed using MTS reagent (Promega, Madison, Wis.) according to the manufacturer's directions. Purified S100P (100 nM final concentration) with or without cromolyn (100 μM final concentration) was added to Panc-1 cells. Only cromolyn (0-100 μM) was added to BxPC-3 cells, which express endogenous S100P. For both cell models, 1.0×10^3 cells/well were plated in 96-well culture dishes. Cells were treated with S100P, PDGF, or cromolyn, or a combination, followed immediately by treatment with either S100P or PDGF. MTS (20 μL per well) was added to cells at various times, and the mixture was incubated for 1 hour at 37° C. Samples were then read at 490 nm (as O.D. units) on a uQuant-Microplate Spectrophotometer (Bio-Tek Services Inc., Richmond, Va.). The assay was performed three times in triplicate.

[6] = tested on: Panc-1 cells; experiment: Panc-1 matrigel invasion assay; type: cell-based; conditions: Panc-1; S100P 100 nM alone, 24 hours
Method: FIGS. 2A-2D show the effect of cromolyn on pancreatic cancer cell invasion. Panc-1 and BxPC-3 cells were plated in Bio-coat matrigel and control chambers and cultured in serum-free culture media. After 24 hours non-invaded cells in the upper chamber were removed, and cells that invaded onto the lower surface of the membrane were counted from five adjacent fields. […] Data are expressed as the percent invasion through the matrigel matrix and membrane relative to migration through the control membrane. Means and 95% confidence intervals from three independent experiments performed in triplicate are shown. Two-tailed two-sample (unpaired) Student's t-tests were used to determine P values.
Panc-1 and BxPC-3 cells were seeded in BIOCOAT matrigel invasion chambers and in control chambers without matrigel (Becton-Dickinson, Bedford, Mass.) according to the manufacturer's protocol. Panc-1 cells were seeded with S100P (100 nM) with or without cromolyn (100 μM), and BxPC-3 cells were seeded with or without cromolyn (1-100 μM). Briefly, 2.0×10^5 cells in 300 μL top solution (serum-free media) were added to each chamber and allowed to invade matrigel for 24 hours at 37° C. in a 5% CO2 atmosphere. The non-invading cells on the upper surface of membrane were removed from the chambers with a cotton swab, and the invading cells on the lower surface of the membrane were fixed and stained using a Diff-Quick stain kit (Becton Dickinson, Bedford, Mass.). After two washes with water, the chambers were allowed to air dry. The numbers of invading cells in five adjacent microscope fields per membrane were counted at 20× magnification to obtain the average number of cells per field. Data are expressed as the percent invasion through the matrigel matrix and membrane relative to the migration through the control membrane. The assays were performed three times.

[7] = tested on: NFκB promoter activity; experiment: NFκB luciferase reporter assay in Panc-1 cells; type: cell-based; conditions: 5 hours
Method: FIGS. 3A, 3B, and 3C show the effect of cromolyn on S100P stimulated NFκB promoter activity in pancreatic cancer cells in vitro and in vivo. Panc-1 and BxPC-3 pancreatic cancer cell lines stably expressing an NFκB luciferase reporter were examined for the effects of S100P and cromolyn. […] Means and 95% confidence intervals are shown for three independent experiments performed in triplicate. *, P=0.022, †, P<0.001, and P<0.001 versus control; #, P=0.005 versus 100 nM S100P alone. […] Means and 95% confidence intervals are shown for three independent experiments performed in triplicate. *, P=0.003, †, P<0.001 versus control. […] After 1 week, tumor growth was assessed and NFκB activity was analyzed using an IVIS system (Xenogen Corp., Alameda, Calif.) after injecting mice with D-luciferin (150 mg per kg body weight) (0 time point). The mice were treated with cromolyn (5 mg per kg body weight by intraperitoneal injection), and NFκB luciferase activity was analyzed again at 24 and 48 hours. *, P=0.005 versus control. Means and 95% confidence intervals are shown for two independent experiments (n=4 mice per group). Two-tailed two-sample (unpaired for in vitro and paired for in vivo studies) Student's t-tests were used to determine P values.
To study pancreatic cancer cell NFκB activity, a lentivirus NFκB luciferase reporter gene construct was developed. The NFκB luciferase reporter gene was excised and isolated from the pNF-κB-Luc Vector (Clonetec, Mountain View, Calif.) and cloned into the lentiviral vector FG9 (Gift from Dr. Xiao-Feng Qin, Dept. of Immunology, M.D. Anderson Cancer Center replacing the CMV/LTR and UBiC promoters, to form Lenti-NFκB-Luc. Lentiviral NFκB vector were co-transfected with packaging constructs pRSVREV, pMDLg/pRRE, and the VSV-G expression plasmid pHCMVG, and lentivirus was produced in 293T cells by the calcium transfection method, as previously described in Qin, et al., Inhibiting HIV-1 infection in human T cells by lentiviral-mediated delivery of small interfering RNA against CCR5; Proc. Natl. Acad. Sci. U.S.A. 2003 Jan. 7; 100(1):183-8. […] Functional validation of NFκB reporter activity was conducted in vitro using TNF-α (20 ng/mL, Sigma, St. Louis, Mo.) as a positive control.
BxPC-3 and Panc-1 cells stably expressing a Lenti-NFkB-luc reporter construct were treated with S100P, cromolyn, or the combination for 5 hours. D-luciferin (150 μg/mL) was added to the cells, and luciferase activity was measured using an IVIS bioluminescence system (Xenogen Co. Alameda, Calif.). Each experiment was conducted three times in triplicate.

[8] = MPanc96, gemcitabine resistant model, to a greater extent than gemcitabine

O=C([O-])c1cc(=O)c2c(OCCC(O)CCOc3cccc4oc(C(=O)[O-])cc(=O)c34)cccc2o1.[Na+].[Na+] [C5OH]
inhibition of S100P induced NFkB activity relative to cromolyn [1]: more potently and effectively than did cromolyn
potency in blocking S100P binding to RAGE relative to cromolyn or C5 [2]: nearly equally potent and more efficient than cromolyn; also recorded: at least as effective as the C5-analog
survival of mice with pancreatic tumors [3, 8]: prolongs survival
tumor growth [3, 8]: reduces tumor growth
effects relative to gemcitabine ([3]; MPanc96 model): superior to those of gemcitabine
inhibition of tumor growth and survival in vivo, relative to cromolyn ([3]; mouse, in vivo): superior to cromolyn
cancer cell apoptosis in response to various cytoxic treatments, relative to cromolyn [4]: at lesser concentrations and to a greater extent than did cromolyn
killing of pancreatic cancer cells by gemcitabine ([4]; with gemcitabine, C5 and C5OH at 10-fold lower concentration than cromolyn): worked equally well

PDGF
cell proliferation, difference versus control ([5]; PDGF 10 ng/mL, 48 hours): 0.2 MTS units
cell proliferation, mean ([5]; PDGF 10 ng/mL, 48 hours, control mean 0.5): 0.7 MTS units

B1: S100P: purified His-tagged full-length human S100P protein, 95-amino acid member of the S100 family (protein, UniProt P25815 1-95, looked up)
Protein S100-P: MTELETAMGMIIDVFSRYSGSEGSTQTLTKGELKVLMEKELPGFLQSGKDKDAVDKLLKDLDANGDAQVDFSEFIVFVAAITSACHKYFEKAGLK
modifications: His tag
notes: purified His-tagged full-length human S100P protein, 95-amino acid member of the S100 family
cells invaded, mean [6]: 58.0%
cell proliferation, mean ([5]; S100P 100 nM alone): 0.93 MTS units
NFκB promoter activity, difference versus 0 nM ([7]; S100P 1 nM): 3544 photons/sec
NFκB promoter activity, mean ([7]; S100P 1 nM, 0 nM mean 3358): 6902 photons/sec
NFκB promoter activity, difference versus 0 nM ([7]; S100P 10 nM): 5400 photons/sec
NFκB promoter activity, mean ([7]; S100P 10 nM): 8758 photons/sec
NFκB promoter activity, difference versus 0 nM ([7]; S100P 100 nM): 11100 photons/sec
NFκB promoter activity, mean ([7]; S100P 100 nM): 14460 photons/sec
